# Reference: US20070149465A1, “COMPOSITIONS AND METHODS FOR PREVENTION AND TREATMENT OF CACHEXIA” (priority 2005, published 2007)
# Where two headings read alike, the source gives them in different places.
# Legend:
# AH-inoculated rats = assay: Rat AH130 Ascites Hepatoma Model of Cancer Cachexia, AH-inoculated rats; format: in vivo, female Wistar rats; details: for Carcass Weights Mean / Gastrocnemius Weights Mean / Heart Weights Mean: normalized to 100 g Day 5 Total Body Weight
# Method: (§1) Following the method of Busquets et al (Busquets S, et al: Cancer Res 64:6725-31, 2004), female Wistar rats were inoculated (Day 0) intra-peritoneally (i.p.) with 2×10^7 cells/animal of Yoshida AH-130 ascites hepatoma (AH) cells. Control animals were inoculated with an equivalent amount of sterile saline solution. […] The animals were sacrificed on Day 5. Upon sacrifice, wet weights of heart and gastrocnemius muscle were determined. Carcass (after gastrocnemius, heart, and ascites removal) weight was also determined upon sacrifice.
# (§2) Treatment Group=Inoculation Type/Vehicle, or Treatment Group=Inoculation Type/F(x)R(y) where, Inoculation Type is either AH or Saline, F is formoterol fumarate, R is roxithromycin, and the parenthetical values are formoterol fumarate and roxithromycin doses (i.p. in mg/kg).
# Saline-inoculated rats = assay: Rat AH130 experiments, saline-inoculated control rats given drug; format: in vivo, female Wistar rats
# Method: as §1, §2
# [1] = Osmolality of formoterol filtrate in citrate buffers; format: physicochemical; details: 25° C.
# [2] = for Formoterol solubility: 25° C.
# [3] = cited from earlier work; for estimated shelf-life: compositions of Banerjee et al.; for rate constant of decomposition: 60° C., buffer 5 mM, ionic strength 0.05
# [4] = Exp 1 Group 3, AH, F 1, R 0 mg/kg i.p., Day 5
# [5] = Exp 2 Group 7, AH, F 1, R 0 mg/kg i.p., Day 5
# [6] = Exp 3 Group 13, AH, F 1, R 0 mg/kg i.p., Day 5
# [7] = Exp 4 Group 18, AH, F 1, R 0 mg/kg i.p., Day 5, sample weight normalized to 100 g Day 5 Total Body Weight
# [8] = Exp 2 Group 10, Saline, F 1, R 0 mg/kg i.p., Day 5, normalized to 100 g Day 5 Total Body Weight
compound,measurement,setting,value
COc1ccc(C[C@@H](C)NC[C@H](O)c2ccc(O)c(NC=O)c2)cc1.COc1ccc(C[C@@H](C)NC[C@H](O)c2ccc(O)c(NC=O)c2)cc1.O=C(O)/C=C/C(=O)O [formoterol fumarate],Carcass Weights Mean,AH-inoculated rats; [4],95.35 g
same,Gastrocnemius Weights Mean,AH-inoculated rats; [4],0.551 g
same,Heart Weights Mean,AH-inoculated rats; [4],0.337 g
same,Carcass Weights Mean,AH-inoculated rats; [5],89.7 g
same,Gastrocnemius Weights Mean,AH-inoculated rats; [5],0.499 g
same,Heart Weights Mean,AH-inoculated rats; [5],0.348 g
same,Carcass Weights Mean,AH-inoculated rats; [6],93.1 g
same,Gastrocnemius Weights Mean,AH-inoculated rats; [6],0.489 g
same,Heart Weights Mean,AH-inoculated rats; [6],0.376 g
same,Carcass Mean,AH-inoculated rats; [7],97.8
same,Gastrocnemius Mean,AH-inoculated rats; [7],0.502
same,Heart Mean,AH-inoculated rats; [7],0.367
same,gastrocnemius muscle loss compared with AH/vehicle group,"AH-inoculated rats; Experiment 1, AH/F(1)R(0) group",significantly less
same,Carcass Weights Mean,Saline-inoculated rats; [8],97.6 g
same,Gastrocnemius Weights Mean,Saline-inoculated rats; [8],0.613 g
same,Heart Weights Mean,Saline-inoculated rats; [8],0.410 g
same,gastrocnemius muscle weights compared with Saline/vehicle group,"Saline-inoculated rats; Experiment 2, Saline/F(1)R(0) group",approximately the same
same,Formoterol Filtrate osmolality,"[1]; 20 mM citrate, pH 4",49 mOsm/kG
same,Formoterol Filtrate osmolality,"[1]; 20 mM citrate, pH 5",56 mOsm/kG
same,Formoterol Filtrate osmolality,"[1]; 20 mM citrate, pH 6",60 mOsm/kG
same,Formoterol Filtrate osmolality,"[1]; 20 mM citrate, pH 7",66 mOsm/kG
same,Formoterol Filtrate osmolality,"[1]; 50 mM citrate, pH 4",113 mOsm/kG
same,Formoterol Filtrate osmolality,"[1]; 50 mM citrate, pH 5",130 mOsm/kG
same,Formoterol Filtrate osmolality,"[1]; 50 mM citrate, pH 6",140 mOsm/kG
same,Formoterol Filtrate osmolality,"[1]; 50 mM citrate, pH 7",146 mOsm/kG
same,Formoterol Filtrate osmolality,"[1]; 100 mM citrate, pH 4",205 mOsm/kG
same,Formoterol Filtrate osmolality,"[1]; 100 mM citrate, pH 5",249 mOsm/kG
same,Formoterol Filtrate osmolality,"[1]; 100 mM citrate, pH 6",275 mOsm/kG
same,Formoterol Filtrate osmolality,"[1]; 100 mM citrate, pH 7",278 mOsm/kG
same,Formoterol Filtrate osmolality,"[1]; 200 mM citrate, pH 4",392 mOsm/kG
same,Formoterol Filtrate osmolality,"[1]; 200 mM citrate, pH 5",473 mOsm/kG
same,Formoterol Filtrate osmolality,"[1]; 200 mM citrate, pH 6",527 mOsm/kG
same,Formoterol Filtrate osmolality,"[1]; 200 mM citrate, pH 7",543 mOsm/kG
same,Formoterol solubility,"[2]; 20 mM citrate, pH 4",2710 µg/mL
same,Formoterol solubility,"[2]; 20 mM citrate, pH 5",2350 µg/mL
same,Formoterol solubility,"[2]; 20 mM citrate, pH 6",2470 µg/mL
same,Formoterol solubility,"[2]; 20 mM citrate, pH 7",2330 µg/mL
same,Formoterol solubility,"[2]; 50 mM citrate, pH 4",3690 µg/mL
same,Formoterol solubility,"[2]; 50 mM citrate, pH 5",2770 µg/mL
same,Formoterol solubility,"[2]; 50 mM citrate, pH 6",2780 µg/mL
same,Formoterol solubility,"[2]; 50 mM citrate, pH 7",2920 µg/mL
same,Formoterol solubility,"[2]; 100 mM citrate, pH 4",3010 µg/mL
same,Formoterol solubility,"[2]; 100 mM citrate, pH 5",2690 µg/mL
same,Formoterol solubility,"[2]; 100 mM citrate, pH 6",2870 µg/mL
same,Formoterol solubility,"[2]; 100 mM citrate, pH 7",2600 µg/mL
same,Formoterol solubility,"[2]; 200 mM citrate, pH 4",3690 µg/mL
same,Formoterol solubility,"[2]; 200 mM citrate, pH 5",2900 µg/mL
same,Formoterol solubility,"[2]; 200 mM citrate, pH 6",2720 µg/mL
same,Formoterol solubility,"[2]; 200 mM citrate, pH 7",2840 µg/mL
same,solubility,[2]; citrate buffer concentrations between 20 and 200 mM at pH 4 to pH 7,> 1000 µg/mL
same,estimated shelf-life,[3]; 5° C.,about 6.2 years
same,estimated shelf-life,[3]; 25° C.,about 7.5 months
same,rate constant of decomposition,[3]; pH 3,approximately 0.62 day^1
same,rate constant of decomposition,[3]; pH 4,~0.11 day^1
same,rate constant of decomposition,[3]; pH 5,~0.044 day^1
same,rate constant of decomposition,[3]; pH 7,~0.55 day^1
